Source: publication PMC5460289, “Identification of New Shikonin Derivatives as Antitumor Agents Targeting STAT3 SH2 Domain” (Scientific Reports, 2017)

Assays:
Assay type in all cases: cell-based, human
STAT5 = test: Western blot of STAT5 phosphorylation and expression; conditions: MDA-MB-231
Protocol: Figure 6 (A) PMM-172 suppressed constitutive pSTAT3 (Tyr705) in a dose-dependent manner. (B) PMM-172 suppressed constitutive pSTAT3 (Tyr705) in a time-dependent manner. (C) MDA-MB-231 cells were treated with IL-6 (20 ng/mL) or vehicle for 30 min, with or without pretreatment with PMM-172 (2 μM) for 24 h. PMM-172 inhibited IL-6 induced phosphorylation of STAT3. (D) Stattic suppressed constitutive pSTAT3 (Tyr705) in a dose-dependent manner. (E) Stattic suppressed constitutive pSTAT3 (Tyr705) in a time-dependent manner. (F) Tyrosine phosphorylation of two STAT family proteins STAT1 and STAT5 were detected with specific antibodies. […] Data were shown as mean ± SD of three independent experiments. *P < 0.05, **P < 0.01. Cropped blots/gels were used in the figure and the gels had been run under the same experimental conditions; the full-length blots/gels are presented in Supplementary Figure S2.
Subsequently, we evaluated the phosphorylation level of other STAT family proteins including STAT1 and STAT5.
(§1) Cells were rinsed twice with cold PBS and then lysed with RIPA buffer containing a protease inhibitor mixture at 1:100 dilution on ice for 30 min. Insoluble components of cell lysates were removed by centrifugation (4 °C, 12000 rmp, 10 min), and protein concentrations were measured using a Pierce BCA protein assay kit. […]

MDA-MB-231 cells = test: Mitochondrial transmembrane potential by JC-1 staining; conditions: 4 h treatment, control 92.3%
Protocol: Subsequently, the mitochondrial transmembrane potential was monitored using JC-1 staining. […] Red fluorescence represents the mitochondrial aggregate form of JC-1 with high ∆Ψm in normal cells. Green fluorescence represents the monomeric form of JC-1 with low ∆Ψm in apoptotic cells.
Figure 5 Mitochondrial transmembrane potential was analysed in PMM-172-treated MDA-MB-231 cells by JC-1 staining. TEXT PRINTED IN THE PICTURE: no label printed: Q1 1.74% (0 μM); Q2 92.3% (0 μM); Q4 0.011% (0 μM); Q3 5.94% (0 μM); Q1 1.88% (2 μM); Q2 73.3% (2 μM); Q4 0.179% (2 μM); Q3 24.6% (2 μM); Q1 1.88% (4 μM); Q2 64.6% (4 μM); Q4 0.227% (4 μM); Q3 33.3% (4 μM); Q1 0.436% (8 μM); Q2 21.3% (8 μM); Q4 0.016% (8 μM); Q3 78.2% (8 μM) DOUBTS OF THE COPYIST ABOUT THIS PICTURE: The picture prints no label for the substance; the plots are told apart only by concentration (0, 2, 4, 8 μM), and the 0 μM plot is the untreated control. / The quadrant percentages are printed very small, so 3, 5, 6, 8 and 9 cannot be told apart with certainty and all readings are best readings: 0 μM: Q1 1.74%, Q2 92.3%, Q3 5.94%, Q4 0.011%; 2 μM: Q1 1.88%, Q2 73.3%, Q3 24.6%, Q4 0.179%; 4 μM: Q1 1.88%, Q2 64.6%, Q3 33.3%, Q4 0.227%; 8 μM: Q1 0.436%, Q2 21.3%, Q3 78.2%, Q4 0.016% […]

pSTAT3 in MCF-10A cells = test: Western blot of pSTAT3 in non-tumorigenic cells; conditions: 24 h, increasing doses
Protocol: Figure 7 MDA-MB-231 cells were treated with indicated concentrations of PMM-172 or Stattic for 24 h, the expression levels of STAT3 in cytoplasmic and nuclear extracts were examined and relative expression levels were analyzed by Image J software. β-actin and Lamin B1 served as markers of cytoplasmic and nuclear extractions, respectively. […] (C) MCF-10A cells were treated with the indicated concentrations of PMM-172 for 24 h. PMM-172 had no effect on the level of the pSTAT3 level in MCF-10A cells. […] Data were shown as mean ± SD from three independent experiments, **P < 0.01. Cropped blots/gels were used in the figure and the gels had been run under the same experimental conditions; the full-length blots/gels are presented in Supplementary Figure S3.
In the following work, we examined whether PMM-172 could affect the activity of STAT3 and viability in non-cancer cells. The non-tumorigenic MCF-10A epithelial cells were employed to be treated with increasing doses of PMM-172 to conduct this assay.
as §1

SMILES: COc1cc(OC)cc(-c2nnc(SCC(=O)O[C@H](CC=C(C)C)C3=CC(=O)c4c(O)ccc(O)c4C3=O)o2)c1 [PMM-172, (R)-1-(5,8-dihydroxy-1,4-dioxo-1,4-dihydronaphthalen-2-yl)-4-methylpent-3-en-1-yl 2-((5-(3,5-dimethoxyphenyl)-1,3,4-oxadiazol-2-yl)thio)acetate]
- phosphorylation and expression of STAT5 (STAT5): inhibited neither the phosphorylation nor expression
- JC-1 quadrant Q2 (ratio of cells with high membrane potential) (MDA-MB-231 cells; 4 μM): 64.6%
- JC-1 quadrant Q2 (ratio of cells with high membrane potential) (MDA-MB-231 cells; 8 μM): 21.3%
- expression levels of total STAT3 in MCF-10A cells (pSTAT3 in MCF-10A cells): kept unchanged
- pSTAT3 level in MCF-10A cells (pSTAT3 in MCF-10A cells): had no effect
